Results on 13 compounds are retold here after ChEMBL document CHEMBL1201862, “PubChem BioAssay data set” (2004).

Test systems include A498; DLD-1; DMS-273; HCT-15; HOP-18; M19-MEL; Malme-3M; OVCAR-4; SF-268; SK-MEL-2; SK-MEL-5; SN12C; SNB-75; SW-620; UO-31; 786-0; Hs-578T; MDA-MB-435; MDA-N; PC-3.
Common to all, as to experiment: DTP human tumour cell line panel, 48 h

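Following 48 hours of exposure in 96-well plates, responses at five concentrations were used to interpolate endpoints linearly. Abbreviation: GI50, concentration required for 50% inhibition of growth.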 Active and inactive are the calls of the source. No stated cut-off is given here; in the data, active = GI50 up to about 1.1 µM and inactive = higher.

In general, GI50 refers to the concentration giving 50% growth inhibition. Regarding `O=C1CSc2sc(=S)sc2S1`, the GI50 with A498 is 31.3 µM (inactive); in the test with DLD-1 it was > 100 µM (inactive); with DMS-273 it was 95.9 µM (inactive); in the test on HCT-15, over 79.3 µM; in the test with HOP-18, > 84.3 µM (inactive); with M19-MEL, > 100 µM (inactive). For the same compound, the GI50 in the test with Malme-3M is > 100 µM (inactive); with OVCAR-4, > 59.3 µM (inactive); in the test with SF-268, > 100 µM (inactive); in the test with SK-MEL-2, > 82.4 µM (inactive); with SK-MEL-5 it was > 100 µM (inactive); in the test with SN12C, > 70.1 µM (inactive). Also, the GI50 with SNB-75, in the test with SW-620 and in the test with UO-31 was > 100 µM (inactive) each time.

On to `CC(=O)OCC1=C(COC(C)=O)C(=O)c2c(O)ccc(O)c2C1=O`, for which the GI50 with A498 was 18.4 µM (inactive); in the test with DLD-1, 1.43 µM (inactive); in the test on DMS-273 it was 15.5 µM (inactive); in the test with HCT-15, 10.4 µM; in the test with HOP-18, 21 µM (inactive); in the test on M19-MEL it was 1.73 µM (inactive). Further, the GI50 is 4.28 µM (inactive) with Malme-3M; 10.8 µM (inactive) in the test on OVCAR-4; 13.8 µM (inactive) in the test with SF-268; 3.11 µM (inactive) with SK-MEL-2; 14.8 µM (inactive) in the test on SK-MEL-5; 10.4 µM (inactive) in the test with SN12C. In addition, the figures for the GI50 with SNB-75, in the test on SW-620 and in the test on UO-31 were 16.1 µM (inactive), 3.21 µM (inactive) and 15.4 µM (inactive), respectively.

With `Cc1cc(C)c2c(n1)S(=O)(=O)N(CCCN1CCN(c3cccc(C(F)(F)F)c3)CC1)C(C(=O)c1ccccc1)=C2O`, the GI50 is 4.48 µM (inactive) with 786-0; 8.57 µM (inactive) with A498; 4.62 µM in the test with HCT-15; 17.6 µM (inactive) in the test on Hs-578T; 6.11 µM (inactive) in the test on MDA-MB-435; 5.5 µM (inactive) in the test on MDA-N. The GI50 in the test with Malme-3M was 18.4 µM (inactive); in the test on OVCAR-4, 4.66 µM (inactive); with PC-3, 9.82 µM (inactive); in the test with SF-268, 8.51 µM (inactive); in the test with SK-MEL-2, 17.3 µM (inactive); with SK-MEL-5, 2.93 µM (inactive). In addition, the GI50 is 4.55 µM (inactive) in the test on SN12C, 3.48 µM (inactive) with SNB-75, 4.13 µM (inactive) in the test with SW-620 and 5.42 µM (inactive) in the test with UO-31.

In the case of `OCc1nnn2c1CCC2`, the GI50 is > 100 µM (inactive) with DLD-1; over 100 µM in the test on HCT-15; > 100 µM (inactive) in the test with HOP-18; > 100 µM (inactive) in the test with M19-MEL; > 100 µM (inactive) with Malme-3M; 76 µM (inactive) in the test on OVCAR-4. The GI50 in the test with SK-MEL-2, in the test on SK-MEL-5, in the test with SN12C, with SNB-75, in the test on SW-620 and in the test with UO-31 was > 100 µM (inactive) throughout.

Take `Oc1nc(-c2ccccc2)cc(-c2ccccc2O)n1`: the GI50 in the test with 786-0 was > 100 µM (inactive); in the test on A498, > 100 µM (inactive); with DLD-1 it was > 100 µM (inactive); with DMS-273, > 100 µM (inactive); in the test on HCT-15, 83.2 µM; with HOP-18, > 100 µM (inactive). Besides, the GI50 was > 100 µM (inactive) in the test on M19-MEL; > 100 µM (inactive) with Malme-3M; > 100 µM (inactive) in the test with OVCAR-4; > 100 µM (inactive) in the test on SF-268; 95.5 µM (inactive) with SN12C; 43.9 µM (inactive) in the test on SNB-75. The figures for the GI50 in the test with SW-620 and in the test with UO-31 were > 100 µM (inactive) and 41 µM (inactive), respectively.

Consider `COc1ccc(C2=C(Cl)c3cc(OC)c(OC)cc3C2Cl)cc1` (stereo not drawn), for which the GI50 is 12.2 µM (inactive) in the test with 786-0; 13.2 µM (inactive) in the test with A498; 17.2 µM (inactive) in the test on DMS-273; 12.3 µM in the test with HCT-15; 20.3 µM (inactive) in the test with HOP-18; 17.3 µM (inactive) in the test on Hs-578T. The GI50 was 18.2 µM (inactive) with M19-MEL; 12.3 µM (inactive) in the test with MDA-MB-435; 10.1 µM (inactive) in the test on MDA-N; 19.1 µM (inactive) with Malme-3M; 13.6 µM (inactive) with OVCAR-4; 12.8 µM (inactive) with PC-3. Further, the GI50 with SF-268 was 16 µM (inactive); with SK-MEL-2, 12.1 µM (inactive); in the test on SK-MEL-5 it was 13.7 µM (inactive); in the test on SN12C, 13.5 µM (inactive); with SNB-75, 0.499 µM (active); in the test on SW-620, 15.3 µM (inactive). For the same compound, the GI50 in the test with UO-31 is 6.55 µM (inactive).

For `COC(=O)C(Cc1c[nH]c2ccccc12)NC(=O)c1ccc(-c2ccc(Cl)cc2Cl)o1` (stereo not drawn), the GI50 in the test on 786-0 is 43.3 µM (inactive); in the test on A498 it was 15.5 µM (inactive); in the test with HCT-15, 52.7 µM; in the test on Hs-578T, > 100 µM (inactive); in the test on MDA-MB-435, 56 µM (inactive); in the test with MDA-N it was 48.2 µM (inactive). Further, the GI50 in the test with Malme-3M was > 100 µM (inactive); in the test on OVCAR-4 it was 38.3 µM (inactive); in the test with PC-3 it was 7.96 µM (inactive); in the test on SF-268, > 100 µM (inactive); with SK-MEL-2, 34.8 µM (inactive); in the test on SN12C, 26.4 µM (inactive). The results for the GI50 with SNB-75, in the test with SW-620 and in the test on UO-31 were 35.5 µM (inactive), 41.1 µM (inactive) and 45.4 µM (inactive), respectively.

As for `Cc1nc2ccccc2c(=O)n1/N=C(\N=N\c1cc(Cl)ccc1Cl)c1ccc(N(C)C)cc1`, the GI50 is 73.5 µM (inactive) in the test with 786-0; 60.4 µM (inactive) in the test with A498; 62.7 µM (inactive) in the test with DLD-1; 38.5 µM (inactive) with DMS-273; over 100 µM in the test on HCT-15; 75.9 µM (inactive) with HOP-18. Further, the GI50 with M19-MEL is > 100 µM (inactive); with SF-268 it was 41.5 µM (inactive); in the test on SK-MEL-5, 27.2 µM (inactive); in the test with SN12C, 58.6 µM (inactive); with SW-620, > 100 µM (inactive); in the test with UO-31 it was 22.9 µM (inactive).

Turning to `c1csc(-c2ccc(-c3cccs3)c3nsnc23)c1`, the GI50 was 22.8 µM (inactive) with 786-0; > 100 µM (inactive) with A498; 0.261 µM in the test on HCT-15; 16.5 µM (inactive) in the test on Hs-578T; 31.4 µM (inactive) in the test on MDA-MB-435; 17.9 µM (inactive) in the test with MDA-N. For the same compound, the GI50 is > 39.1 µM (inactive) in the test with Malme-3M; 0.608 µM (active) in the test with OVCAR-4; > 54 µM (inactive) with PC-3; 33.7 µM (inactive) with SF-268; > 48.6 µM (inactive) in the test on SK-MEL-2; > 33.6 µM (inactive) in the test with SK-MEL-5. Besides, the GI50 in the test with SN12C was > 60.3 µM (inactive); with SNB-75, 19.7 µM (inactive); with SW-620, 17.1 µM (inactive); in the test on UO-31, 43.4 µM (inactive).

On to `Cc1nc(Nc2nc3ccccc3[nH]2)[nH]c(=O)c1CCO`, for which the GI50 was 65.6 µM (inactive) with 786-0; > 100 µM (inactive) with A498; 61.9 µM in the test on HCT-15; 20.6 µM (inactive) in the test on Hs-578T; > 100 µM (inactive) in the test on MDA-MB-435; > 92 µM (inactive) in the test on MDA-N. The GI50 in the test with Malme-3M was 25.6 µM (inactive); with OVCAR-4 it was > 100 µM (inactive); in the test with PC-3, > 100 µM (inactive); in the test with SF-268, > 96.6 µM (inactive); in the test with SK-MEL-2, 37.2 µM (inactive); in the test with SK-MEL-5, 70.3 µM (inactive). Besides, the GI50 was > 91.6 µM (inactive) with SN12C, > 100 µM (inactive) with SNB-75, 99.8 µM (inactive) in the test with SW-620 and 46.8 µM (inactive) in the test with UO-31.

For `S=c1nc(Nc2ccc(Br)cc2)c2c3c(sc2[nH]1)CN(N1CCc2c(sc4[nH]c(=S)nc(Nc5ccc(Br)cc5)c24)C1)CC3`, the GI50 is 8.13 µM (inactive) with 786-0; 11.3 µM (inactive) in the test with A498; 22.5 µM in the test with HCT-15; > 50 µM (inactive) with Hs-578T; 15.2 µM (inactive) in the test on MDA-MB-435; 12.6 µM (inactive) in the test on MDA-N. The GI50 in the test with Malme-3M is 44.1 µM (inactive); in the test on OVCAR-4, 30.2 µM (inactive); in the test on PC-3, 38.8 µM (inactive); in the test with SF-268, 33.7 µM (inactive); in the test with SK-MEL-2, 14.9 µM (inactive); in the test with SK-MEL-5, 12 µM (inactive). Besides, the GI50 was 28.4 µM (inactive) in the test on SN12C, > 50 µM (inactive) in the test with SNB-75, 16.4 µM (inactive) in the test with SW-620 and 20.1 µM (inactive) in the test with UO-31.

On to `COC(=O)c1cc(C)ccc1CC(Cc1cccc(C)c1)C(=O)OC` (stereo not drawn), for which the GI50 is > 100 µM (inactive) in the test with 786-0; > 100 µM (inactive) with A498; over 100 µM with HCT-15; > 100 µM (inactive) in the test with Hs-578T; > 100 µM (inactive) in the test on MDA-MB-435; > 100 µM (inactive) in the test with MDA-N. Besides, the GI50 was > 100 µM (inactive) in the test with Malme-3M; > 100 µM (inactive) in the test with OVCAR-4; > 100 µM (inactive) in the test with PC-3; 13.6 µM (inactive) with SF-268; 47.3 µM (inactive) in the test with SK-MEL-2; 34.8 µM (inactive) with SK-MEL-5. Further, the GI50 in the test on SN12C was > 100 µM (inactive); in the test on SNB-75 it was 39.5 µM (inactive); with SW-620, > 100 µM (inactive); in the test on UO-31, > 100 µM (inactive).

Regarding `COc1c(Cl)ccc(Cl)c1C(=O)NNC(=O)c1c(Cl)c(Cl)c(Cl)c(Cl)c1-c1nc2cc(C(=O)c3ccccc3)ccc2[nH]1`, the GI50 was 72.4 µM (inactive) with 786-0; 61.2 µM (inactive) in the test with A498; 35 µM in the test with HCT-15; 54.1 µM (inactive) with Hs-578T; 42.9 µM (inactive) in the test on MDA-MB-435; 33.3 µM (inactive) with MDA-N. Besides, the GI50 is 54.3 µM (inactive) in the test with Malme-3M; 44.9 µM (inactive) in the test on OVCAR-4; 37.8 µM (inactive) in the test on PC-3; 34.3 µM (inactive) in the test with SF-268; 31.9 µM (inactive) with SK-MEL-2; 25.2 µM (inactive) in the test with SK-MEL-5. Further, the GI50 in the test on SN12C was 70.8 µM (inactive); in the test with SNB-75 it was > 100 µM (inactive); in the test on SW-620 it was > 100 µM (inactive); in the test on UO-31 it was 60.4 µM (inactive).
